Format in all cases: functional, cell-based
Assay [1] has as its system A549. Description: Cytotoxicity against human A549 cells upto 100 uM by SRB method.
Assay [2] has as its system HT-29. In words: Cytotoxicity against human HT-29 cells upto 100 uM by SRB method.
The test system of assay [3] is A549. Description: Cytotoxicity against human A549 cells by SRB method.
The test system of assay [4] is HT-29. In words: Cytotoxicity against human HT-29 cells by SRB method.

The source made the active and inactive calls. No cut-off for these calls is given here.

Take `CC[C@@]1(C(=O)NCCN2CCOCC2)OC(=O)c2c1cc1n(c2=O)Cc2c-1nc1ccccc1c2C1CCCC1`: the result in the assay on A549 [1] and with HT-29 [2] was inactive.

Regarding `CC[C@@]1(C(=O)NCCO)OC(=O)c2c1cc1n(c2=O)Cc2cc3ccccc3nc2-1`, the outcome in the assay with A549 [1] and in the assay on HT-29 [2] was inactive.

On to `CCCCNC(=O)[C@]1(CC)OC(=O)c2c1cc1n(c2=O)Cc2c-1nc1ccccc1c2CC`, for which the outcome in the assay on A549 [1] and in the assay with HT-29 [2] was inactive.

For the molecule `CC[C@@]1(C(=O)NCCN2CCOCC2)OC(=O)c2c1cc1n(c2=O)Cc2c-1nc1ccccc1c2C(=O)C1CC1`, the outcome in the assay on A549 [1] and in the assay with HT-29 [2] was inactive.

On to `CCc1c2c(nc3ccc(O)cc13)-c1cc3c(c(=O)n1C2)COC(=O)[C@]3(O)CC` [7-ETHYL-10-HYDROXYCAMPTOTHECIN], for which the IC50 with A549 [3] was found to be 0.08 µM; in the assay on HT-29 [4] it was 0.12 µM.

`CCCCNC(=O)[C@]1(CC)OC(=O)c2c1cc1n(c2=O)Cc2cc3ccccc3nc2-1`: the IC50 in the assay on A549 [3] worked out at 70.1 µM; in the assay with HT-29 [4], 68.3 µM.

Regarding `CC[C@@]1(C(N)=O)OC(=O)c2c1cc1n(c2=O)Cc2cc3ccccc3nc2-1`, the result in the assay with A549 [1] and in the assay on HT-29 [2] was inactive.

For the molecule `CC[C@@]1(C(=O)NCCN2CCSCC2)OC(=O)c2c1cc1n(c2=O)Cc2cc3ccccc3nc2-1`, the outcome with A549 [1] and with HT-29 [2] was inactive.

Take `CC[C@@]1(C(=O)NCCN2CCCC2)OC(=O)c2c1cc1n(c2=O)Cc2cc3ccccc3nc2-1`: the IC50 with A549 [3] stood at 94.3 µM; in the assay with HT-29 [4], 31.6 µM.

On to `CC[C@@]1(O)C(=O)OCc2c1cc1n(c2=O)Cc2cc3c(CN(C)C)c(O)ccc3nc2-1` [TOPOTECAN], for which the figures for the IC50 in the assay on A549 [3] and with HT-29 [4] were 0.48 µM and 0.375 µM, respectively.

In the case of `CCN(CC)CCNC(=O)[C@]1(CC)OC(=O)c2c1cc1n(c2=O)Cc2cc3ccccc3nc2-1`, the IC50 in the assay with A549 [3] worked out at 65.3 µM; with HT-29 [4] it was 31.6 µM.

In the case of `CC[C@@]1(C(=O)NCCN2CCCCC2)OC(=O)c2c1cc1n(c2=O)Cc2cc3ccccc3nc2-1`, the results for the IC50 with A549 [3] and in the assay on HT-29 [4] were 74.9 µM and 31.6 µM, respectively.

As for `CC[C@@]1(C(=O)NCCN2CCOCC2)OC(=O)c2c1cc1n(c2=O)Cc2c-1nc1ccccc1c2C1CCCCC1`, the outcome in the assay with A549 [1] and with HT-29 [2] was inactive.

With `CC[C@@]1(C(=O)NCCN2CCN(C)CC2)OC(=O)c2c1cc1n(c2=O)Cc2cc3ccccc3nc2-1`, the IC50 came to 53.1 µM in the assay with A549 [3] and 7.25 µM in the assay on HT-29 [4].

On to `CC[C@@]1(C(=O)NCCN2CCOCC2)OC(=O)c2c1cc1n(c2=O)Cc2c-1nc1ccc(OC)cc1c2C1CCCC1`, for which the results for the IC50 in the assay with A549 [3] and in the assay with HT-29 [4] were 96.5 µM and 62.9 µM, respectively.

Turning to `CC[C@@]1(C(=O)NCCN2CCOCC2)OC(=O)c2c1cc1n(c2=O)Cc2cc3ccccc3nc2-1`, the IC50 came to 25.6 µM in the assay on A549 [3] and 39.9 µM in the assay with HT-29 [4].

With `CC[C@@]1(C(=O)NCCCO)OC(=O)c2c1cc1n(c2=O)Cc2cc3ccccc3nc2-1`, the result with A549 [1] and with HT-29 [2] was inactive.

As for `CCc1c2c(nc3ccc(OC)cc13)-c1cc3c(c(=O)n1C2)C(=O)O[C@@]3(CC)C(=O)NCCN1CCOCC1`, the result in the assay on A549 [1] and in the assay with HT-29 [2] was inactive.

Values taken from ChEMBL document CHEMBL1152179, “Semi-synthesis and biological activity of gamma-lactones analogs of camptothecin” (Bioorg Med Chem Lett, 2008).
